Measurements as given in paper PMC10618793, “Investigating cannabinoids as P2X purinoreceptor 4 ligands by using surface plasmon resonance and computational docking” (Heliyon, 2023).
Several values for one entry are separate records, joined by “and”; a condition that tells them apart may be missing. Equal values may be shown once. Entries after “also recorded” stand apart in the source; their conditions may differ. Read-outs that look alike come from different tables or passages of the source.

Assays:
[1] = target: T1, P2X4 receptor (Homo sapiens, UniProt Q99571); assay: Surface plasmon resonance binding screening assay; conditions: for binding affinity with P2X4 (in words) / RU (Response Units) values compared with theoretical Rmax: SPR screening; for binding affinity with P2X4 (in words) / Kd / koff / kon: 0.4-300 μM; for association/dissociation phase with P2X4 (sensorgram, in words): SPR screening sensorgrams, Fig. 3; for Kd / koff / kon: SPR Biacore T200, P2X4 immobilized on CM5 chip, 1:1 binding model, n.d. = not detectable; for koff: read-out: Koff (dissociation rate); for kon: read-out: Kon (association rate); for RU (Response Units) values compared with theoretical Rmax: attributed to matrix binding effects
T1 construct: His tag (N); purchased MyBioSource, Inc (San Diego, CA, USA)
T1 sequence (Q99571 77-338): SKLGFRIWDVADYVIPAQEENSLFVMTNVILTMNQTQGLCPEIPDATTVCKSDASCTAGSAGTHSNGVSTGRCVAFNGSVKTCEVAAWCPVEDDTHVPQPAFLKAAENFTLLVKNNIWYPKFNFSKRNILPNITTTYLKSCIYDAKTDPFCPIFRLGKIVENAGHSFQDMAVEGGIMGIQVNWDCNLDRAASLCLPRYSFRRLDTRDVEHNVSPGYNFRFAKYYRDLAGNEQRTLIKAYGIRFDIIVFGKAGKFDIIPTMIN

[2] = target: T1, P2X4 receptor; assay: Surface plasmon resonance competitive binding assay; conditions: for Response Unit (RU): 5-BDBD alone, 1:1 combination, 5 or 1 μM; for type of binding on P2X4 relative to 5-BDBD: experimental 1:1 combination RU compared with theoretical RU values; for experimental binding response unit (RU): validation BX430 vs 5-BDBD, single binders at 1 μM and 1:1 combination, Fig. 4B
Protocol: Recombinant human P2X4 (500 μg/mL stock solution in Dnase free water) was diluted to 40 μg/mL in sodium acetate 4.0. The protein was immobilized on a CM5 chip based on an amine coupling method as previously described with minor modification. Briefly, the immobilization method involved five phases. First, a stable baseline was established, and a response was observed. […] Both binding association and dissociation were identified as ethanolamine hydrochloride (1 M; pH 8.5) deactivated unreacted NHS-esters and removed electrostatically bound ligands with a contact time of 420 s and a flow rate of 10 μL/min. Completion of all five phases indicated successful immobilization of the P2X4 protein on the SPR sensor chip.
A competitive SPR binding assay was designed to narrow down the cannabinoids’ binding site on P2X4. […] Both compounds were dissolved in DMSO at 10 mM and diluted to 10 μM in PBS (20 mM). […] Subsequently, they were diluted to a working concentration of 10 μM using PBS (20 mM) as the diluent. For individual runs, each antagonist was further diluted with the running buffer, composed of PBS (20 mM) with 3 % DMSO, resulting in a final concentration of 1 μM. To evaluate the interaction of both antagonists simultaneously, a 1:1 combination ratio was employed. Glycine, at a pH of 2.5 was utilized as the regeneration buffer. Additionally, solvent correction cycles were incorporated, consisting of eight correction points ranging from 2.5 % to 3.8 % of DMSO content, ensuring accurate data interpretation during the experimental procedure.
Compounds were initially prepared at a concentration of 10 mM in DMSO and subsequently diluted in PBS (20 mM) to either 10 or 2 μM, depending on the binding response unit (RU) observed during the binding screening assays. For individual evaluations, compounds were diluted in a 1:1 combination ratio with the running buffer, PBS (20 mM) + 3 % DMSO, to either 5 or 1 μM.
These mixtures were subsequently diluted to either 5 or 1 μM using the running buffer.
The theoretical non-competitive value was calculated as the sum of the experimental RU values of the cannabinoid and BX430, or the cannabinoid and 5-BDBD. The combined experimental RU value was compared to both the competitive and non-competitive theoretical RU values to determine the type of binding.

[3] = test system: human P2X4; conditions: HEK293 cells expressing human P2X4; cited from earlier work
[4] = test system: P2X4; design: method as in PMID 28588493; conditions: selective non-competitive (allosteric) antagonist of P2X4; cited from earlier work
[5] = KD (equilibrium dissociation constant)
[6] = read-out: KD (equilibrium dissociation constant)

SMILES	binding affinity with P2X4 (in words) [1]	Kd [1, 5]	koff [1] [s⁻¹]	kon [1] [M⁻¹ s⁻¹]	further results
CCCc1cc(O)cc(O)c1C(=O)O [Varinolic acid, varinolic acid]	did not demonstrate any binding affinity				
C=C(C)C1CCC(C)=CC1c1c(O)cc(CCCC)cc1O (stereo not drawn) [CBDB, cannabidibutol]	did not demonstrate any binding affinity				
CCCc1cc(O)c(C/C=C(\C)CCC=C(C)C)c(O)c1 [CBGV, cannabigerovarin]					association/dissociation phase with P2X4 (sensorgram, in words) [1]: slow dissociation phase
CCCCCc1cc(O)c2c(c1)OC(C)(C)C1CCC(CO)=CC21 (stereo not drawn) [11-OH-THC]		6.31 µM	0.0742	11800	
C=C(C)C1CCC(C)=CC1c1c(O)cc(CCCCCCC)cc1O (stereo not drawn) [CBDP, cannabidiphorol]	did not demonstrate any binding affinity				
CCCCCc1cc2c(c(O)c1C(=O)O)[C@@H]1C=C(C)CC[C@H]1C(C)(C)O2 [THCA-A, Δ^9-tetrahydrocannabinolic acid A]		117 µM	0.101	866	association/dissociation phase with P2X4 (sensorgram, in words) [1]: slow association and dissociation phases; RU (Response Units) values compared with theoretical Rmax [1]: higher than the theoretical Rmax
CCCCCc1cc(O)c2c(c1)OC(C)(CCC=C(C)C)C=C2 (stereo not drawn) [CBC, cannabichromene]	did not demonstrate any binding affinity				
CCCc1cc(O)c(C/C=C(\C)CCC=C(C)C)c(O)c1C(=O)O [CBGVA, cannabigerovarinic acid]			0.174	1890	Kd [1, 6]: 92 µM; association/dissociation phase with P2X4 (sensorgram, in words) [1]: slow association and dissociation phases; RU (Response Units) values compared with theoretical Rmax [1]: higher than the theoretical Rmax
CCCCCc1cc(O)c(C/C=C(\C)CCC=C(C)C)c(OC)c1 [CBGM, cannabigerol monomethyl ether]	did not demonstrate any binding affinity				
CCCCCc1cc(O)c(C/C=C(\C)CCC=C(C)C)c(O)c1 [CBG, cannabigerol]	did not demonstrate any binding affinity				
CCCc1cc(O)c2c(c1)OC(C)(C)c1ccc(C)cc1-2 [CBV, cannabivarin]		16.4 µM	0.0405	2470	Response Unit (RU) ([2]; Fig. 6E: CBV alone): 0.9 RU; type of binding on P2X4 relative to 5-BDBD [2]: competitive P2X4-binders; also recorded: competitive binding; association/dissociation phase with P2X4 (sensorgram, in words) [1]: slow dissociation phase
C=C(C)[C@@H]1CCC(C)=C[C@H]1c1c(O)cc(CCCCC)cc1O [CBD, cannabidiol]		1 µM	0.02	19200	Response Unit (RU) ([2]; Fig. 6A: CBD alone): 6.9 RU; type of binding on P2X4 relative to 5-BDBD [2]: competitive P2X4-binders; also recorded: competitive binding; Kd [1, 6]: 1.04 µM; association/dissociation phase with P2X4 (sensorgram, in words) [1]: slow dissociation phase
CCCCc1cc(O)c2c(c1)OC(C)(C)C1CCC(C)=CC21 (stereo not drawn) [THCB, Δ^9-tetrahydrocannabibutol]	did not demonstrate any binding affinity				
O=C1CN=C(c2cccc(Br)c2)c2oc3ccccc3c2N1 [5-BDBD, reference compound]					Response Unit (RU) ([2]; Fig. 6A: CBD alone): 5.8 RU; Response Unit (RU) ([2]; Fig. 6E: CBV alone): 6.4 RU; experimental binding response unit (RU) [2]: 34.9 RU; IC50 [3]: […]
CCCCCc1cc(O)c(C/C=C(\C)CCC=C(C)C)c(O)c1C(=O)O [CBGA, cannabigerolic acid]		140 µM and > 10 µM	0.119	824	Kd [1, 6]: 144 µM; association/dissociation phase with P2X4 (sensorgram, in words) [1]: slow association and dissociation phases
CC(C)c1cc(Br)c(NC(=O)Nc2cccnc2)c(Br)c1 [BX430, reference compound]					IC50 [4]: 540 nM; experimental binding response unit (RU) [2]: 22.5 RU
C=C(C)[C@@H]1CCC(C)=C[C@H]1c1c(O)cc(CCCCC)c(C(=O)OC)c1O [CBDAME, cannabidiolic acid methyl ester]	did not demonstrate any binding affinity				
CCCc1cc(O)c2c(c1)OC(C)(CCC=C(C)C)C=C2 (stereo not drawn) [CBCV, cannabichromevarin]	did not demonstrate any binding affinity				
CCCCCc1cc(O)c2c(c1)OC(C)(C)c1ccc(C)cc1-2 [CBN, cannabinol]	did not demonstrate any binding affinity				
CC(C)=CCC/C(C)=C/Cc1c(O)cc(C)c(C(=O)O)c1O [CBGOA, cannabigerorcinic acid]		140 µM and > 10 µM	0.375	2720	Kd [1, 6]: 138 µM; RU (Response Units) values compared with theoretical Rmax [1]: higher than the theoretical Rmax
C=C(C)c1ccc(C)cc1-c1c(O)cc(CCCCC)cc1O [CBND, cannabinodiol]		84 µM	0.128	1520	Kd [1, 6]: 84.2 µM; RU (Response Units) values compared with theoretical Rmax [1]: higher than the theoretical Rmax
CCCCCCCc1cc(O)c2c(c1)OC(C)(C)C1CCC(C)=CC21 (stereo not drawn) [THCP, Δ^9-tetrahydrocannabiphorol]	did not demonstrate any binding affinity				
C=C(C)[C@@H]1CCC(C)=C[C@H]1c1c(O)cc(CCCCC)c(C(=O)O)c1O [CBDA, cannabidiolic acid]	did not demonstrate any binding affinity				
CCCCCc1cc2c(c(O)c1C(=O)O)[C@@H]1CC(C)=CC[C@H]1C(C)(C)O2 [Δ^8-THCA-A, Δ^8-trans-tetrahydrocannabinolic acid A]		76 µM and 76.4 µM	0.0812	1060	association/dissociation phase with P2X4 (sensorgram, in words) [1]: slow association and dissociation phases; RU (Response Units) values compared with theoretical Rmax [1]: higher than the theoretical Rmax
C=C(C)[C@@H]1CCC(C)=C[C@H]1c1c(O)cc(CCC)cc1O [CBDV, cannabidivarin]		9.9 µM	0.12	12100	Kd [1, 6]: 9.91 µM
C=C(C)[C@@H]1C[C@H](O)C(C)=C[C@H]1c1c(O)cc(CCCCC)cc1O [6α–OH–CBD, 6α-hydroxy cannabidiol]		340 µM and > 10 µM	0.427	1270	Kd [1, 6]: 337 µM; RU (Response Units) values compared with theoretical Rmax [1]: higher than the theoretical Rmax
CCCCCc1cc(O)c2c(c1)OC1(C)CCC3C1C2C3(C)C (stereo not drawn) [CBL, cannabicyclol]	did not demonstrate any binding affinity				
